Data set [1] concerns pigs experiencing induced cardiac arrest. Put plainly: Pigs in induced VF cardiac arrest, untreated for 20 minutes, given inhaled isoflurane at the start of conventional manual CPR. The class given is in vivo. The procedure: As an example, Applicants conducted experiments on pigs experiencing induced cardiac arrest. Cardiac arrest was induced by generating ventricular fibrillation (VF) and pigs were left in untreated cardiac arrest for 20 minutes. At the initiation of conventional manual CPR, inhaled isoflurane at 4% was introduced via an anesthesia machine for a total of 3 minutes. The anesthesia was then turned off. After a total of 4 minutes of CPR the animals were then shocked back into a stable perfusing heart rhythm and the dose of isoflurane anesthesia was restarted at 1% to provide for anesthesia during the recovery period of the animals. […] Cardiac function based upon an assessment of the left ventricular (LV) ejection fraction (EF) after 1 and 4 hours was normal, as determined by echocardiography, and post resuscitation inotropic support was unnecessary due to the absence of hemodynamic instability. Two of the 4 animals had undetectable levels of markers of cardiac injury (creatinine phosphokinase MB and cardiac troponin [cTnI]), while 2 of the 4 animals had mild elevations of markers of cardiac injury (creatinine phosphokinase MB and cTnI) at 4 hours post ROSC (6.8±9 and 5.8±11 in ng/mL, respectively). […] Although the duration of untreated VF in the control animals was 5 minutes shorter, post ROSC left ventricular function was severely compromised (EF: 33±9%) and there was significant elevation of CKMB and cTnI at 4 hours post ROSC (26.5±13.7 and 31.2±14.3, p<0.05) compared to isoflurane treated animals resuscitated after 20 minutes of untreated VF. In the absence of anesthesia during CPR as described above, Applicants were been unable to resuscitate pigs after 20 minutes of untreated arrest with conventional CPR. These findings represent an important advance in the field of CPR.

For data set [2], the system named is animals after cardiac arrest and ROSC. The data set can be described thus: Second cardiac arrest/CPR experiment, sevoflurane-treated (SPoC) vs control: left ventricle ejection fraction post ROSC. The following applies: *P<0.05 vs controls. It is filed as in vivo, pigs. As for the experimental part: (§1) Another experiment was conducted with similar results. In that experiment, the hearts were subsequently removed from 5 animals from each group 15 minutes post-ROSC for mitochondrial function testing. Compared with the control group, all mitochondrial function tests were improved in the sevoflurane treated animals.
(§2) Table 1 illustrates the mitochondrial function for complex I substrates pyruvate (P, 10 mM) and malate (M, 10 mM) and complex II substrate succinate (Suc, 10 mM) in control hearts vs. sevoflurane-treated hearts (SPoC). LVEF refers to the left ventricle ejection fraction percentage at 12 min post return of spontaneous circulation (ROSC). RCI refers to the respiratory control index (state 3/state 4 respiration). ATP refers to adenosine triphosphate synthesis and Ca Ret refers to calcium retention capacity until mitochondrial transition pore opening. The asterisk (*) refers to P of less than 0.05.

For data set [3] the following is noted: at 37° C.; cited from earlier work.
Data set [4] has as its system heart mitochondria (complex I and complex II substrates). The data set can be described thus: Mitochondrial function testing of hearts removed 15 minutes post-ROSC. The class given is in vivo, pigs. As for the experimental part: as §1, §2
The mark [5] stands for this setting: 4 hours post ROSC, 2 of 4 animals undetectable, 2 of 4 mild elevations.
The mark [6] stands for this setting: pyruvate 10 mM and malate 10 mM.

We go through two molecules from patent publication US20140048061A1, “SYSTEM AND METHOD FOR ADMINISTERING ANESTHETICS WHILE PERFORMING CPR” (priority 2012, published 2014).

Marks after values point to notes of the source that are not given here.

With `FC(F)OC(Cl)C(F)(F)F` (centres unmarked) [isoflurane], in data set [1] (setting [5]), the “cardiac troponin cTnI (marker of cardiac injury)” value stood at 5.8 ± 11 ng/mL and the “creatinine phosphokinase MB (marker of cardiac injury)” value was determined as 6.8 ± 9 ng/mL. For the same molecule, the “post resuscitation inotropic support” value in data set [1] (absence of hemodynamic instability) is “unnecessary”. For the same molecule, the “cardiac function based on left ventricular (LV) ejection fraction (EF)” value in data set [1] (after 1 and 4 hours, by echocardiography) was “normal”. Also, in data set [1] (all 4 animals, 20 min untreated VF, isoflurane 4% for 3 min, after 4 min CPR and one dose of 0.5 mg epinephrine), the “shocks needed to achieve return of spontaneous circulation (ROSC)” value is listed as 1-2 shocks.
Regarding `FCOC(C(F)(F)F)C(F)(F)F` [sevoflurane], the “LVEF (%) 12 min Post ROSC” value in data set [2] was 53 ± 16* %. Moreover, the “blood gas partition coefficient” value in data set [3] is 0.65. For the same molecule, the “all mitochondrial function tests compared with the control group” value in data set [4] (5 animals per group, hearts removed 15 min post-ROSC) is “improved”. In data set [4] (complex I substrates pyruvate 10 mM and malate 10 mM, hearts removed 15 min post-ROSC), the “RCI P/M (respiratory control index, state 3/state 4 respiration)” value is 11.4 ± 0.5*. Besides, the “RCI Suc (respiratory control index)” value in data set [4] (complex II substrate succinate 10 mM, hearts removed 15 min post-ROSC) is recorded as 4.5 ± 0.2*. In addition, in data set [4] (setting [6]), the “ATP P/M (adenosine triphosphate synthesis)” value is given as 148.5 ± 24.8* nm/min/mg and the “Ca Ret P/M (calcium retention capacity until mitochondrial transition pore opening)” value is recorded as 318.8 ± 45.0* nm/min/mg. For the same molecule, in data set [4] (succinate 10 mM), the “ATP Suc (adenosine triphosphate synthesis)” value is recorded as 132.3 ± 18.4* nm/min/mg and the “Ca Ret Suc (calcium retention capacity until mitochondrial transition pore opening)” value is recorded as 474.0 ± 58.8* nm/min/mg.
